In patent US20140093555A1, “PATCH PREPARATION CONTAINING AMINE OXIDE” (Nitto Denko Corporation, priority 2012, published 2014):

Tested on: skin isolated from a hairless mouse
Experiment: Skin permeability test (patch on isolated hairless mouse skin, permeation cell, PBS(-) receptor, HPLC)
Assay type: in vitro ADME
Settings: statement in words, Tables 3 and 4
Experimental: To examine transdermal absorbability of the drug, the obtained patch preparation was subjected to a skin permeability test.
A patch preparation was cut into a circle having a diameter of 6 mmφ, adhered to the stratum corneum side of a skin isolated from a hairless mouse, mounted on a cell for skin permeation experiment (effective area 9 mmφ) such that the dermic layer side was a receptor phase, and a skin permeation experiment was conducted. As a receptor solution, a deaerated PBS(−) solution (phosphate buffered saline) was used.

skin permeability of the drug: low skin permeability
SMILES: CCOC(=O)C1=C(COCCN)NC(C)=C(C(=O)OC)C1c1ccccc1Cl (stereo not shown) [amlodipine besilate]
